Laboratory results published in patent publication EP1211260A1, “Peptides from Ag85 of mycobacterium and uses thereof” (priority 2000, dated 2002).
Read-outs that look alike come from different tables or passages of the source. Where a SMILES comes first, the peptide text is derived from it.

Biological target: Recombinant HLA-A*201 (Homo sapiens, UniProt P04439, D140Y/D185E/D98H/E176V/E277Q/G131W/G231S/I119V/I121R/I166T/I218V/L300P/L318F/N151K/N90K/P208A/P217A/Q86G/Q94H/R138H/R169H/T345S)
Test: biochemical
Format: binding
[1] = 20°C, 48 h, standard peptide HBV core 47-56 (52->C), read-out: HLA-A2 Binding Affinity(IC50; µM)

SMILES	IC50 [1] [µM]	IC50 [µM]
CC(C)C[C@H](NC(=O)[C@H](Cc1ccc(O)cc1)NC(=O)[C@H](CCC(=O)O)NC(=O)[C@@H](NC(=O)[C@@H]1CCCN1C(=O)[C@H](CC(C)C)NC(=O)CN)C(C)C)C(=O)N[C@@H](CCC(N)=O)C(=O)N[C@H](C(=O)O)C(C)C [5-13] (H-GLPVEYLQV-OH)	7	
CC(C)C[C@H](NC(=O)CNC(=O)[C@H](CC(=O)O)NC(=O)[C@H](CC(C)C)NC(=O)[C@H](CC(C)C)NC(=O)[C@@H](N)Cc1ccc(O)cc1)C(=O)N[C@@H](CCCNC(=N)N)C(=O)N[C@@H](C)C(=O)O [37-44] (H-YLLDGLRA-OH)	1.6	
CC[C@H](C)[C@H](NC(=O)[C@H](CO)NC(=O)[C@H](CC(C)C)NC(=O)CN)C(=O)N[C@H](C(=O)N[C@@H](CCSC)C(=O)N1CCC[C@H]1C(=O)N[C@H](C(=O)O)C(C)C)C(C)C [65-72] (H-GLSIVMPV-OH)	0.3	
CC(C)C[C@H](NC(=O)[C@H](Cc1c[nH]c2ccccc12)NC(=O)[C@H](CCC(N)=O)NC(=O)[C@@H]1CCCN1C(=O)[C@H](CC(C)C)NC(=O)[C@H](CCC(=O)O)NC(=O)[C@H](CO)NC(=O)[C@@H](NC(=O)[C@H](CC(C)C)NC(=O)[C@@H](N)Cc1ccccc1)[C@@H](C)O)C(=O)O [100-109] (H-FLTSELPQWL-OH)	0.7	
CC(C)C[C@H](NC(=O)[C@H](Cc1c[nH]c2ccccc12)NC(=O)[C@H](CCC(N)=O)NC(=O)[C@@H]1CCCN1C(=O)[C@H](CC(C)C)NC(=O)[C@H](CCC(=O)O)NC(=O)[C@H](CO)NC(=O)[C@@H](NC(=O)[C@@H](N)CC(C)C)[C@@H](C)O)C(=O)O [101-109] (H-LTSELPQWL-OH)	6	
CC[C@H](C)[C@H](NC(=O)[C@H](CCSC)NC(=O)[C@H](C)NC(=O)[C@H](CO)NC(=O)[C@H](CO)NC(=O)CNC(=O)[C@H](C)NC(=O)[C@H](CCSC)NC(=O)[C@@H](N)CO)C(=O)O [126-134] (H-SMAGSSAMI-OH)		1.7
CC[C@H](C)[C@H](NC(=O)[C@H](CCSC)NC(=O)[C@H](C)NC(=O)[C@H](CO)NC(=O)[C@H](CO)NC(=O)CNC(=O)[C@H](C)NC(=O)[C@H](CCSC)NC(=O)[C@@H](N)CO)C(=O)N[C@@H](CC(C)C)C(=O)O [126-135] (H-SMAGSSAMIL-OH)	0.5	
CC[C@H](C)[C@H](NC(=O)[C@@H](N)Cc1ccccc1)C(=O)N[C@@H](Cc1ccc(O)cc1)C(=O)N[C@@H](C)C(=O)NCC(=O)N[C@@H](CO)C(=O)N[C@@H](CC(C)C)C(=O)N[C@@H](CO)C(=O)N[C@@H](C)C(=O)O [143-151] (H-FIYAGSLSA-OH)	0.4	
CC[C@H](C)[C@H](NC(=O)[C@@H](N)Cc1ccccc1)C(=O)N[C@@H](Cc1ccc(O)cc1)C(=O)N[C@@H](C)C(=O)NCC(=O)N[C@@H](CO)C(=O)N[C@@H](CC(C)C)C(=O)N[C@@H](CO)C(=O)N[C@@H](C)C(=O)N[C@@H](CC(C)C)C(=O)O [143-152, FIYAGSLSAL] (H-FIYAGSLSAL-OH)	0.01	
CC[C@H](C)[C@H](NC(=O)[C@H](CC(C)C)NC(=O)[C@H](CO)NC(=O)[C@@H]1CCCN1C(=O)CNC(=O)[C@H](CCSC)NC(=O)CN)C(=O)NCC(=O)N[C@@H](CC(C)C)C(=O)O [158-166] (H-GMGPSLIGL-OH)	1.4	
CC(C)C[C@H](NC(=O)[C@H](CCCNC(=N)N)NC(=O)[C@@H](NC(=O)[C@H](CC(N)=O)NC(=O)[C@H](CC(N)=O)NC(=O)[C@H](C)NC(=O)[C@@H](NC(=O)[C@H](CC(C)C)NC(=O)[C@@H](N)CCCCN)C(C)C)[C@@H](C)O)C(=O)O [199-207] (H-KLVANNTRL-OH)		1.4
CC(C)C[C@H](NC(=O)[C@H](CCCNC(=N)N)NC(=O)[C@@H](NC(=O)[C@H](CC(N)=O)NC(=O)[C@H](CC(N)=O)NC(=O)[C@H](C)NC(=O)[C@@H](NC(=O)[C@H](CC(C)C)NC(=O)[C@@H](N)CCCCN)C(C)C)[C@@H](C)O)C(=O)N[C@@H](Cc1c[nH]c2ccccc12)C(=O)N[C@H](C(=O)O)C(C)C [199-209] (H-KLVANNTRLWV-OH)	0.6	
CC(C)C[C@H](NC(=O)[C@@H](N)CCCNC(=N)N)C(=O)N[C@@H](Cc1c[nH]c2ccccc12)C(=O)N[C@H](C(=O)N[C@@H](Cc1ccc(O)cc1)C(=O)N[C@@H](CS)C(=O)NCC(=O)N[C@@H](CC(N)=O)C(=O)NCC(=O)N[C@H](C(=O)O)[C@@H](C)O)C(C)C [206-215] (H-RLWVYCGNGT-OH)	2	
CC(C)C[C@H](NC(=O)[C@H](CC(N)=O)NC(=O)[C@H](CO)NC(=O)[C@H](CO)NC(=O)[C@H](CCCNC(=N)N)NC(=O)[C@@H](NC(=O)[C@H](Cc1ccccc1)NC(=O)[C@H](CC(N)=O)NC(=O)[C@H](CCC(=O)O)NC(=O)[C@H](CC(C)C)NC(=O)[C@@H](N)Cc1ccccc1)C(C)C)C(=O)O [228-238] (H-FLENFVRSSNL-OH)	1.2	
